Results as given in ChEMBL document CHEMBL4765279, “Discovery of a novel series of imidazo[1',2':1,6]pyrido[2,3-d]pyrimidin derivatives as potent cyclin-dependent kinase 4/6 inhibitors” (Eur J Med Chem, 2020).

What was measured:
[1] = AUC (0 to t) in Sprague-Dawley rat at 3 mg/kg, iv by LC-MS/MS analysis; type: ADME, organism-based; set-up: dose 3 mg/kg; conditions: in vivo
Cytochrome P450 2C9 = Cytochrome P450 2C9 (Homo sapiens, UniProt P11712); assay: Time-dependent inhibition of CYP2C9 in human liver microsomes at 10 uM in presence of NADPH by LC-MS/MS analysis; type: ADME
Chain of Cytochrome P450 2C9 (P11712 whole entry): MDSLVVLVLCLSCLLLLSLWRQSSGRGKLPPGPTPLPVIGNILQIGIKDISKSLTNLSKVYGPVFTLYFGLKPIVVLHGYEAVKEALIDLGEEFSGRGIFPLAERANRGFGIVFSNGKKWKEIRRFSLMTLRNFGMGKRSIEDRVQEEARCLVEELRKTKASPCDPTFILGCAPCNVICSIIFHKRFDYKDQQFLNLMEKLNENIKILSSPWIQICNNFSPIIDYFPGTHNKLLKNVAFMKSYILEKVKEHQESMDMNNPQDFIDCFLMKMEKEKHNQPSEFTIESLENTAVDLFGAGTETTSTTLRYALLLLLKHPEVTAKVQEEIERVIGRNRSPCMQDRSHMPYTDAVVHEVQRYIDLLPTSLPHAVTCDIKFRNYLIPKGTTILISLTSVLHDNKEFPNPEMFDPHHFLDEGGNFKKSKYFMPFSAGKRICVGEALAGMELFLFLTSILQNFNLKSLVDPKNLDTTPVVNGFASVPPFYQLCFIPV

CYP1A2 = target: T1, CYP1A2 (Homo sapiens, UniProt P05177); assay: Inhibition of CYP1A2 in human liver microsomes at 10 uM measured after 20 mins in presence of NADPH by LC-MS/MS analysis relative to control; type: ADME
T1 sequence (P05177 whole entry): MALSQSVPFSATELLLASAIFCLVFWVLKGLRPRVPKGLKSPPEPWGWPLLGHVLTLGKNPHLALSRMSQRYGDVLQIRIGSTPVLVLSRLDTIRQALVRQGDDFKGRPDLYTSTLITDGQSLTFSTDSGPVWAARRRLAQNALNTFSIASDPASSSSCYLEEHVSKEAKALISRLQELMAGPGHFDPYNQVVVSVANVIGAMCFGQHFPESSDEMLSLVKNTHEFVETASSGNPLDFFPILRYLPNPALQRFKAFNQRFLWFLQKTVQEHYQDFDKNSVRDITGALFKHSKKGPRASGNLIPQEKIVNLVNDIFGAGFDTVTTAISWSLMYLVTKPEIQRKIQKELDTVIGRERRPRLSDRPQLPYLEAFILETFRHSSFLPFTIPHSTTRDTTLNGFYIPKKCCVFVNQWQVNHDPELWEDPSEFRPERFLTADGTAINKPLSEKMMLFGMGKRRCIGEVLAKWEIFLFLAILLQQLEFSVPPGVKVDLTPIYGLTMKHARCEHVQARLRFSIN

CDK9/cyclin T1 = CDK9/cyclin T1 (Homo sapiens, UniProt P50750)
Chain of CDK9/cyclin T1 (O60563 whole entry): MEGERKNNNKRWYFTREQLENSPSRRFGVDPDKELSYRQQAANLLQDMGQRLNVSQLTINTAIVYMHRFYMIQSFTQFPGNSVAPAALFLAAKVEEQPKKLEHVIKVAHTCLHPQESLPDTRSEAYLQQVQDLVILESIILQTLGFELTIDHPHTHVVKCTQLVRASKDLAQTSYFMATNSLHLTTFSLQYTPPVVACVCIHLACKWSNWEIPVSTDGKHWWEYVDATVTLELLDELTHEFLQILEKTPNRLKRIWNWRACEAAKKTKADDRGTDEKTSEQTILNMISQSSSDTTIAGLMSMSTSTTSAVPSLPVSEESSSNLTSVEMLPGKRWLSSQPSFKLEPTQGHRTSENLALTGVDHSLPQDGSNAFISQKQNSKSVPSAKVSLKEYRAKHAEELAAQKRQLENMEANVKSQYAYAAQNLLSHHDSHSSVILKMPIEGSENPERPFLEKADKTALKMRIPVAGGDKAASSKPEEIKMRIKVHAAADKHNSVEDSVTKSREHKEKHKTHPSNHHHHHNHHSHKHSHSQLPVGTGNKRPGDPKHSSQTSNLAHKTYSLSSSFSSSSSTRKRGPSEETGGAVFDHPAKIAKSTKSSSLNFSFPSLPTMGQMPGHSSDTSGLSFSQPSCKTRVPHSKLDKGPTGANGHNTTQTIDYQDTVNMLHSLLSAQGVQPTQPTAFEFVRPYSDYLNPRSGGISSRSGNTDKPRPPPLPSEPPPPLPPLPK
Chain of CDK9/cyclin T1 (P50750 whole entry): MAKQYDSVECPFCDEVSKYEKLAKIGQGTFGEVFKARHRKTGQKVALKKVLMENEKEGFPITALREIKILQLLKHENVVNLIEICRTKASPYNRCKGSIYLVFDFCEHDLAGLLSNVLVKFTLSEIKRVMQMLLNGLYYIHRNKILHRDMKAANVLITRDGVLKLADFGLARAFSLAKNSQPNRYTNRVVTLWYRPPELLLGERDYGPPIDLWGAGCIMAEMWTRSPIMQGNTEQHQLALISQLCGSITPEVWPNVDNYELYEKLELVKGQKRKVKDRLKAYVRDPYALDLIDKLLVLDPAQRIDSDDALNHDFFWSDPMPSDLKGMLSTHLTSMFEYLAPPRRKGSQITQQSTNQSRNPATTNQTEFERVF
Description: Inhibition of CDK9/cyclin T1 (unknown origin)

[2] = Intrinsic clearance in human liver microsomes at 1 uM preincubated for 10 mins followed by NADPH addition and measured after 1 hr by LC-MS/MS analysis; type: ADME, Microsome; conditions: time 70 min, read-out: CLH
[3] = AUC (0 to t) in Sprague-Dawley rat at 6 mg/kg, po by LC-MS/MS analysis; type: ADME, organism-based; set-up: dose 6 mg/kg; conditions: in vivo
U-87 MG [4] = assay: Antitumor activity against human U-87 MG cells xenografted in BALB/c mouse assessed as tumor growth at 10 mg/kg, po qd for 16 days relative to control; type: functional, U-87MG ATCC; conditions: time 16 day
CYP2D6 = CYP2D6 (Homo sapiens, UniProt P10635); assay: Inhibition of CYP2D6 in human liver microsomes at 10 uM measured after 20 mins in presence of NADPH by LC-MS/MS analysis relative to control; type: ADME
CYP3A4 = CYP3A4 (Homo sapiens, UniProt P08684); assay: Inhibition of CYP3A4 in human liver microsomes at 10 uM measured after 20 mins in presence of NADPH by LC-MS/MS analysis relative to control; type: ADME
Chain of CYP3A4 (P08684 whole entry): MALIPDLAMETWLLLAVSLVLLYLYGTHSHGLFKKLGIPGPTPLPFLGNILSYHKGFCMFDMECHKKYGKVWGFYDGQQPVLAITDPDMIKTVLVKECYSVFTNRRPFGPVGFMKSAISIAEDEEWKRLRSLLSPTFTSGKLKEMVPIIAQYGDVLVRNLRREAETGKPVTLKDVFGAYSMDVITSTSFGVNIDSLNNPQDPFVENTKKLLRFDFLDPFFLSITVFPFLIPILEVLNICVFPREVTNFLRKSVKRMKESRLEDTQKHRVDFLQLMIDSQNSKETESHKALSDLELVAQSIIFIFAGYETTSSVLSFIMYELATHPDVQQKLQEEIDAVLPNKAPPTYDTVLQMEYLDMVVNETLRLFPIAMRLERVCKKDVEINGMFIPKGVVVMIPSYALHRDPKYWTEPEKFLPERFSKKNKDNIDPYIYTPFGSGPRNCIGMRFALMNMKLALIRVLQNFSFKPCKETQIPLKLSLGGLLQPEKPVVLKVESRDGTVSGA

COLO 205 [5] = assay: Antiproliferative activity against human COLO 205 cells assessed as cell growth inhibition measured after 4 to 6 days by celltiter-glo luminescent cell viability assay; type: functional, cell-based
CYP2C19 = CYP2C19 (Homo sapiens, UniProt P33261); assay: Inhibition of CYP2C19 in human liver microsomes at 10 uM measured after 20 mins in presence of NADPH by LC-MS/MS analysis relative to control; type: ADME
Chain of CYP2C19 (P33261 whole entry): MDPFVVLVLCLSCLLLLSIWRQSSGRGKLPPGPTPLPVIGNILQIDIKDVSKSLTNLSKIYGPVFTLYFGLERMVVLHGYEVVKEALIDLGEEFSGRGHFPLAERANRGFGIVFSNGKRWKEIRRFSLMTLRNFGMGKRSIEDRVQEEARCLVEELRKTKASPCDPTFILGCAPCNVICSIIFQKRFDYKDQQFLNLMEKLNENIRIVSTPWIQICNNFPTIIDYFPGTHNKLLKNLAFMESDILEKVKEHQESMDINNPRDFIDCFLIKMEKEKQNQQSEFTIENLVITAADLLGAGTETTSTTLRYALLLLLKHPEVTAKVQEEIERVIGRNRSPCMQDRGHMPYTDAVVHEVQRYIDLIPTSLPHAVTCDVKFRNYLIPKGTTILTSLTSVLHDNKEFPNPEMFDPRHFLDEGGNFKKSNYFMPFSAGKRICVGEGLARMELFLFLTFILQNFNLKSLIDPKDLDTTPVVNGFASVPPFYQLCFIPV

[6] = Volume of distribution at steady state in BALB/c mouse at 3 mg/kg, iv by LC-MS/MS analysis; type: ADME, organism-based; conditions: in vivo, read-out: Vdss
[7] = Half life in BALB/c mouse at 10 mg/kg, po by LC-MS/MS analysis; type: ADME, organism-based; conditions: in vivo
Cytochrome P450 3A4 = Cytochrome P450 3A4 (Homo sapiens, UniProt P08684); assay: Time-dependent inhibition of CYP3A4 in human liver microsomes at 10 uM in presence of NADPH by LC-MS/MS analysis; type: ADME
Chain of Cytochrome P450 3A4 (P08684 whole entry): as the sequence (P08684 whole entry) above

Cytochrome P450 2C19 = Cytochrome P450 2C19 (Homo sapiens, UniProt P33261); assay: Time-dependent inhibition of CYP2C19 in human liver microsomes at 10 uM in presence of NADPH by LC-MS/MS analysis; type: ADME
Chain of Cytochrome P450 2C19 (P33261 whole entry): as the sequence (P33261 whole entry) above

[8] = Half life in BALB/c mouse at 3 mg/kg, iv by LC-MS/MS analysis; type: ADME, organism-based; conditions: in vivo
[9] = Cmax in BALB/c mouse at 10 mg/kg, po by LC-MS/MS analysis; type: ADME, organism-based; set-up: route oral, dose 10 mg/kg; conditions: in vivo
[10] = Half life in Sprague-Dawley rat at 6 mg/kg, po by LC-MS/MS analysis; type: ADME, organism-based; conditions: in vivo
[11] = AUC (0 to t) in BALB/c mouse at 10 mg/kg, po by LC-MS/MS analysis; type: ADME, organism-based; set-up: dose 10 mg/kg; conditions: in vivo
[12] = Toxicity in human U-87 MG cells xenografted BALB/c mouse assessed as body weight loss at 10 mg/kg, po qd for 16 days relative to control; type: organism-based; conditions: in vivo, 384 h, time 16 day
CYP2C9 = CYP2C9 (Homo sapiens, UniProt P11712); assay: Inhibition of CYP2C9 in human liver microsomes at 10 uM measured after 20 mins in presence of NADPH by LC-MS/MS analysis relative to control; type: ADME
Chain of CYP2C9 (P11712 whole entry): as the sequence (P11712 whole entry) above

COLO 205 [13] = assay: Cell cycle arrest in human COLO 205 cells assessed as accumulation at G0/G1 phase at 200 nM measured after 24 hrs by propidium iodide staining based flow cytometry relative to control; type: functional
U-87 MG [14] = assay: Antiproliferative activity against human U-87 MG cells assessed as cell growth inhibition measured after 4 to 6 days by celltiter-glo luminescent cell viability assay; type: functional, cell-based, U-87MG ATCC
CDK2/Cyclin A2 = CDK2/Cyclin A2 (Homo sapiens, UniProt P24941)
Description: Inhibition of CDK2/cyclin A2 (unknown origin)

[15] = target: Cyclin-dependent kinase 7/ cyclin H (Homo sapiens, UniProt P50613); assay: Inhibition of CDK7/cyclin H (unknown origin); type: protein-complex assay
Cytochrome P450 1A2 = target: T2, Cytochrome P450 1A2 (Homo sapiens, UniProt P05177); assay: Time-dependent inhibition of CYP1A2 in human liver microsomes at 10 uM in presence of NADPH by LC-MS/MS analysis; type: ADME
T2 sequence (P05177 whole entry): T1 sequence (P05177 whole entry)

Cytochrome P450 2D6 = Cytochrome P450 2D6 (Homo sapiens, UniProt P10635); assay: Time-dependent inhibition of CYP2D6 in human liver microsomes at 10 uM in presence of NADPH by LC-MS/MS analysis; type: ADME
[16] = Oral bioavailability in BALB/c mouse at 10 mg/kg by LC-MS/MS analysis; type: ADME, organism-based; conditions: in vivo
MDA-MB-468 = assay: Antiproliferative activity against human MDA-MB-468 cells assessed as cell growth inhibition measured after 4 to 6 days by celltiter-glo luminescent cell viability assay; type: functional, cell-based
[17] = AUC (0 to t) in BALB/c mouse at 3 mg/kg, iv by LC-MS/MS analysis; type: ADME, organism-based; set-up: dose 3 mg/kg; conditions: in vivo
[18] = Volume of distribution at steady state in Sprague-Dawley rat at 3 mg/kg, iv by LC-MS/MS analysis; type: ADME, organism-based; conditions: in vivo, read-out: Vdss
CDK4/Cyclin D3 = CDK4/Cyclin D3 (Homo sapiens, UniProt P11802); assay: Inhibition of recombinant human full-length N-terminal GST-fused CDK4 (1 to 303 residues)/GST-tagged CyclinD3 (1 to 292 residues) expressed in baculovirus expression system using ULight-elF4E-binding protein 1 peptide as substrate measured after 30 mins by LANCE assay
Chain of CDK4/Cyclin D3 (P11802 whole entry, the tested form may be a part): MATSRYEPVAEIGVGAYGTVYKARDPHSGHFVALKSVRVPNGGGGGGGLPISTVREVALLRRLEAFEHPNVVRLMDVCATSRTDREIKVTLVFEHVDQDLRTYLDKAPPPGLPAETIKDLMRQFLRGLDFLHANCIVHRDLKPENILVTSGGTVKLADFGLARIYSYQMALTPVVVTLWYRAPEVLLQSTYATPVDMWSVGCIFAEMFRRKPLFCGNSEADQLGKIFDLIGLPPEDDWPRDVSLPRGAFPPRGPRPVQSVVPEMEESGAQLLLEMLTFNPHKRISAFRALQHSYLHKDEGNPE
Chain of CDK4/Cyclin D3 (P30281 whole entry, further chain, the tested form may be a part): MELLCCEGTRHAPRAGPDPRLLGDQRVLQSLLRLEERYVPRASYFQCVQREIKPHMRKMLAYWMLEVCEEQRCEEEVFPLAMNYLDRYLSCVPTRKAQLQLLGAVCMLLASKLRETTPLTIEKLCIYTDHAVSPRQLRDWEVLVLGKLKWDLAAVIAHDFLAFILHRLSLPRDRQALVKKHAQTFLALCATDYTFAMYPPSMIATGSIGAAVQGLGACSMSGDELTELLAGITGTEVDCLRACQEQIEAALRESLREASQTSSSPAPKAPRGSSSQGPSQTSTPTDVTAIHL

[19] = Oral bioavailability in Sprague-Dawley rat at 6 mg/kg by LC-MS/MS analysis; type: ADME, organism-based; conditions: in vivo
[20] = target: Cyclin-dependent kinase 1/cyclin B1 (Homo sapiens, UniProt P06493)
Chain of Cyclin-dependent kinase 1/cyclin B1 (P06493 whole entry, the tested form may be a part): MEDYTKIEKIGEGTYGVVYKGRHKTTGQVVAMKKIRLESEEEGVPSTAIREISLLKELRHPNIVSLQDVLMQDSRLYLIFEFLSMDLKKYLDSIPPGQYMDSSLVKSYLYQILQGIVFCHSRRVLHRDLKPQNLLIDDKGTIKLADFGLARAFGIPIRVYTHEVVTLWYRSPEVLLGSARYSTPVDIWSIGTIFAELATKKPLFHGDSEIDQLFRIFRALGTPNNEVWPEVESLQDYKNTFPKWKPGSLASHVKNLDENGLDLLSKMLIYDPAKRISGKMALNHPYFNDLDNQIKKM
Chain of Cyclin-dependent kinase 1/cyclin B1 (P14635 whole entry, further chain, the tested form may be a part): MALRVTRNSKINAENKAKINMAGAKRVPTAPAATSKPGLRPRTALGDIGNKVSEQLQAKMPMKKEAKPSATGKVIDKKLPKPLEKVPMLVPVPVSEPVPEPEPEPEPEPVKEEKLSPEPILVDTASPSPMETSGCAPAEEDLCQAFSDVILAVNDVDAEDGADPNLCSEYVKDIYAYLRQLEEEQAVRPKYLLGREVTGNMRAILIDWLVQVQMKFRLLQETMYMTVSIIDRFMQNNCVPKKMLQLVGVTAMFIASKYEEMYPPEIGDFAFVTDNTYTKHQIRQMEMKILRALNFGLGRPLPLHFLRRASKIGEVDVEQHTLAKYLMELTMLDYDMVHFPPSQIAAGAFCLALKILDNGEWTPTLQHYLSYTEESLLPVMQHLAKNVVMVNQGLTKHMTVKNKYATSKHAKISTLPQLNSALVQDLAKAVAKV
Description: Inhibition of CDK1/cyclin B (unknown origin)

CDK6/Cyclin D3 = CDK6/Cyclin D3 (Homo sapiens, UniProt Q00534); assay: Inhibition of human full-length N-terminal GST tagged CDK6 (1 to 326 residues)/GST-tagged cyclinD3 (1 to 292 residues) expressed in baculovirus expression system using ULight-elF4E-binding protein 1 peptide as substrate measured after 30 mins by LANCE assay
[21] = Intrinsic clearance in rat liver microsomes at 1 uM preincubated for 10 mins followed by NADPH addition and measured after 1 hr by LC-MS/MS analysis; type: ADME, Microsome; conditions: time 70 min, read-out: CLH
[22] = Half life in Sprague-Dawley rat at 3 mg/kg, iv by LC-MS/MS analysis; type: ADME, organism-based; conditions: in vivo
U-87 MG [23] = assay: Antitumor activity against human U-87 MG cells xenografted in BALB/c mouse assessed as tumor growth inhibition at 10 mg/kg, po qd for 16 days relative to control; type: functional, U-87MG ATCC; conditions: 384 h, time 16 day, read-out: TGI
[24] = Cmax in Sprague-Dawley rat at 6 mg/kg, po by LC-MS/MS analysis; type: ADME, organism-based; set-up: route oral, dose 6 mg/kg; conditions: in vivo

In the case of `CC(=O)c1c(C)c2cnc(Nc3ccc(N4CCNCC4)cc3)nc2n2cc(C(C)(C)C)nc12`, the AUCt [1] is reported as 1334 ng·h/mL, the TDI (Cytochrome P450 2C9) is reported as “Not Active” and the inhibition at […], 10 µM (CYP1A2) is reported as 17%. It also gave an IC50 (CDK9/cyclin T1) of 221 nM, a microsomal CLint at 1 µM [2] of 6 µL/min/mg and an AUC(0-t) [3] of 1780 ng·h/mL. For the same compound, the T/C (U-87 MG [4]) was 37%, the inhibition at […], 10 µM (CYP2D6) was 7% and the inhibition at […], 10 µM (CYP3A4) was 18%. For the same compound, the IC50 (COLO 205 [5]) was 256 nM, the inhibition at […], 10 µM (CYP2C19) was 19% and the Vd [6] was 33.7 L/kg. For the same compound, the half-life [7] was 3.68 h, the TDI (Cytochrome P450 3A4) was “Not Active” and the TDI (Cytochrome P450 2C19) was “Not Active”. The half-life [8] was 4.64 h, the Cmax [9] was 570 ng/mL and the half-life [10] was 4.44 h. For the same compound, the AUC(0-t) [11] was 775 ng·h/mL, the Activity [12] was less than 20% and the inhibition at […], 10 µM (CYP2C9) was 12%. The Activity (COLO 205 [13]) was 95.4%, the IC50 (U-87 MG [14]) was 49.3 nM and the IC50 (CDK2/Cyclin A2) was 60.3 nM. For the same compound, the IC50 [15] was 204 nM, the TDI (Cytochrome P450 1A2) was “Active” and the TDI (Cytochrome P450 2D6) was “Not Active”. The bioavailability [16] was 53.1%, the IC50 (MDA-MB-468) was 984 nM and the AUCt [17] was 440 ng·h/mL. It also gave a Vd [18] of 35.7 L/kg, an IC50 (CDK4/Cyclin D3) of 2.7 nM and a bioavailability [19] of 66.9%. It also gave an IC50 [20] of 2080 nM, an IC50 (CDK6/Cyclin D3) of 4.8 nM and a microsomal CLint at 1 µM [21] of 6 µL/min/mg. For the same compound, the half-life [22] was 5.57 h, the inhibition in vivo at 10 mg/kg (U-87 MG [23]) was 70% and the Cmax [24] was 170 ng/mL.
